Laboratory results from ChEMBL document CHEMBL1250452, “Bradykinin B1 receptor antagonists as potential therapeutic agents for pain” (J Med Chem, 2010).

Experiments:
B1 bradykinin receptor [1] = biological target: T1, B1 bradykinin receptor (Macaca mulatta, UniProt Q8HZP2); assay: Binding affinity to monkey bradykinin B1 receptor
T1 sequence (Q8HZP2 whole entry): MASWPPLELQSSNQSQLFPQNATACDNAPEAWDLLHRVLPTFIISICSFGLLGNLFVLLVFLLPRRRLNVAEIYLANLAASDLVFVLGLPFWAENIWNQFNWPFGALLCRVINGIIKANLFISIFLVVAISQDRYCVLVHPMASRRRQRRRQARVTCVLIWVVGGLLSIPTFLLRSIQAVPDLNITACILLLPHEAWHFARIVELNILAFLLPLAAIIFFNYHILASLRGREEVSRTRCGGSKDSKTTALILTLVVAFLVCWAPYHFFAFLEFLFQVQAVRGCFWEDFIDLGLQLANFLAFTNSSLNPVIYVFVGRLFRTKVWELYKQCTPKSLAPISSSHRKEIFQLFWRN

[2] = Half life in Sprague-Dawley rat at 0.7 mg/kg, iv; type: ADME, organism-based; set-up: dose 0.7 mg/kg, route intravenous; conditions: in vivo
[3] = Oral bioavailability in Sprague-Dawley rat at 7 mg/kg; type: ADME, organism-based; conditions: in vivo
[4] = Half life in Sprague-Dawley rat at 2 mg/kg, iv; type: ADME, organism-based; set-up: dose 2 mg/kg, route intravenous; conditions: in vivo
B1 bradykinin receptor [5] = biological target: T2, B1 bradykinin receptor (Oryctolagus cuniculus, UniProt P48748); assay: Inhibition of rabbit bradykinin B1 receptor
T2 sequence (P48748 whole entry): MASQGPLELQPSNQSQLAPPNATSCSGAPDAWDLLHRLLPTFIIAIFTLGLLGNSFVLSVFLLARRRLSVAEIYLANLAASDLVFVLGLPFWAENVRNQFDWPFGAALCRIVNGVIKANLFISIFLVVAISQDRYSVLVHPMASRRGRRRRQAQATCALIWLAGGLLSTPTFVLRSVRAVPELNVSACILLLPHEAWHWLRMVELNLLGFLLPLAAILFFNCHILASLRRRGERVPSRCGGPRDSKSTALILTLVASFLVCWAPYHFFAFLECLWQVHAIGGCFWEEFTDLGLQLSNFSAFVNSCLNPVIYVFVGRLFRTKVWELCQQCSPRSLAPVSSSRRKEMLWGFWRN

B1 bradykinin receptor [6] = biological target: T3, B1 bradykinin receptor (Rattus norvegicus, UniProt P97583); assay: Inhibition of rat bradykinin B1 receptor
T3 sequence (P97583 whole entry): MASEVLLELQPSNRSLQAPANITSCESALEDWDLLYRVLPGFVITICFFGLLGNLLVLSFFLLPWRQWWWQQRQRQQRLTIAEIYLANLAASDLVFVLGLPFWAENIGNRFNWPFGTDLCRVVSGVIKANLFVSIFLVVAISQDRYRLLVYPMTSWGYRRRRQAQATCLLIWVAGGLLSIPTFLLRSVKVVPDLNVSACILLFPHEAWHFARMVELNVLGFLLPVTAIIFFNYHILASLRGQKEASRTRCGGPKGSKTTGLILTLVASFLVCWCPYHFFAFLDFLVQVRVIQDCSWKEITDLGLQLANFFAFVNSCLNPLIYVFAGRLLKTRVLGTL

B1 bradykinin receptor [7] = biological target: T4, B1 bradykinin receptor (Canis lupus familiaris, UniProt Q9BDQ5); assay: Antagonist activity at dog bradykinin B1 receptor; type: functional
T4 sequence (Q9BDQ5 whole entry): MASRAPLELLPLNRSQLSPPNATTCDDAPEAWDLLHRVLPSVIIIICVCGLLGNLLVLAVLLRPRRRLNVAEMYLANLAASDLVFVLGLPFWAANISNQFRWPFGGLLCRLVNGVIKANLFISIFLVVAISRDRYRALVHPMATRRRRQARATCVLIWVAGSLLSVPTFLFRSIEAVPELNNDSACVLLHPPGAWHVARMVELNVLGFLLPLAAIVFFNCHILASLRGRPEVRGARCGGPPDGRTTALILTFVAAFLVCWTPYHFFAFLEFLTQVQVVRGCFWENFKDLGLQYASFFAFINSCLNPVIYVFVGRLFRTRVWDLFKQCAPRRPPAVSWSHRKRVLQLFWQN

B1 bradykinin receptor [8] = biological target: T5, B1 bradykinin receptor (Homo sapiens, UniProt P46663); assay: Antagonist activity at human bradykinin B1 receptor in human MR5 cells assessed as [3H]inositol phosphate accumulation; type: functional, cell-based
T5 sequence (P46663 whole entry): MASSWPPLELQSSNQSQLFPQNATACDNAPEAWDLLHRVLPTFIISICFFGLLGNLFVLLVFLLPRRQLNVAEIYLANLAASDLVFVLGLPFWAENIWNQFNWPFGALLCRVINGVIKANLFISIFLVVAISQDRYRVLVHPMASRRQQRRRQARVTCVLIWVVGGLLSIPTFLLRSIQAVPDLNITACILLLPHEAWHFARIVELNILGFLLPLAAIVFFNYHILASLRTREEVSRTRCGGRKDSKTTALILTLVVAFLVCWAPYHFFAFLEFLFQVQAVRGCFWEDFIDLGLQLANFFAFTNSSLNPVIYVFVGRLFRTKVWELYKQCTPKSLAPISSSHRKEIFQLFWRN

Rattus norvegicus = assay: Antiinflammatory activity in rat assessed as reversal of carrageenan-induced hyperalgesia at 3 mg/kg, ip; type: functional; conditions: route intraperitoneal

For `CN1CCN(C(=O)C2CCN(S(=O)(=O)c3ccc(NCC(c4ccccc4)c4ccccc4)c(C(=O)N4CCOCC4)c3)CC2)CC1`, the Ki (B1 bradykinin receptor [1]) was 7.7 nM, the half-life [2] was 2.7 h and the bioavailability [3] was 42%.

Compound `O=C(Nc1ccc(S(=O)(=O)Nc2ccccc2C(=O)c2ccccc2)cc1)OCC1CCCO1` (configuration not stated) has a half-life [4] of 9.7 h.

For `O=C(C[C@@H]1C(=O)Nc2ccccc2N1S(=O)(=O)c1ccc(Cl)c(Cl)c1)NCCc1ccc(C2=NCCN2)cc1`, the IC50 (B1 bradykinin receptor [5]) was 0.26 nM, the IC50 (B1 bradykinin receptor [6]) was 163 nM and the IC50 (B1 bradykinin receptor [7]) was 16.3 nM.

Work on `CC(=O)Nc1ccc(S(=O)(=O)Nc2ccccc2C(=O)c2ccccc2)cc1` yielded a half-life [4] of 0.3 h.

`O=C(Nc1[nH]nc(C(=O)NCCC2CCN(c3ccncc3)CC2)c1Br)c1ccccc1Cl` gave an IC50 (B1 bradykinin receptor [8]) of 3.5 nM.

With `CCCN1C(=O)[C@H](NC(=O)Nc2ccc(N3CCN(c4ccncc4)CC3)cc2)N=C(CCc2ccccc2)c2ccccc21` the Activity (Rattus norvegicus) was 89% and the half-life [4] was 2.7 h.

In the case of `O=C(NCCCN1CCCCC1)Nc1ccc(S(=O)(=O)Nc2ccccc2C(=O)c2ccccc2)cc1`, the half-life [4] is reported as 14 h.
